Values joined by “and” are separate entries in the source; they are usually repeats but may differ in a detail not shown here. Equal entries are not always repeated.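 The compound was tested at five concentrations on cells cultured in 96-well plates, with a 48-hour exposure period. GI50 marks 50% less growth. TGI: total growth inhibition.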

The test system of the test is MDA-MB-468 breast. In words: growth of human tumour cells (NCI), 48 h.
As for `O=C(c1ccccc1)C(CN1CCOCC1)c1ccccc1` (centres undefined), the GI50 was 0.382 µM and the TGI was determined as 1.59 µM.

As for `CC(C)CC(CC1=CCC2CC1C2(C)C)C1=C(O)C(C)(C)C(=O)C(C)(C)C1=O` (centres undefined), the GI50 was 0.268 µM and the TGI amounted to 1.33 µM.

For `O[C@H]1CO[C@H]2[C@@H]1OC[C@@H]2Oc1ccc(Nc2ccnc(Nc3ccc(O[C@H]4CO[C@H]5[C@@H]4OC[C@@H]5O)c(Cl)c3)n2)cc1Cl`, the GI50 was 1.18 µM and the TGI was 3.81 µM.

With `CCCn1c(C)nc2c1C(=O)c1ccccc1C2=O`, the GI50 is 18.7 µM and the TGI was 56.7 µM.

For `Cc1cc(NCc2cc(Nc3ccnc4cc(Cl)ccc34)ccc2F)nc(N2CCCC2)n1`, the GI50 was 1.33 µM and the TGI turned out to be 3.07 µM.

On to `O=C(/C(=C/c1ccccc1)CN1CCCCC1)c1ccccc1`, for which the GI50 is 0.531 µM and the TGI stood at 1.95 µM.

With `CS(=O)(=O)c1ccc(C(=O)Nc2ccc(Cl)c(-c3ccccn3)c2)c(Cl)c1`, the GI50 is 20.8 µM and 2.16 µM; the TGI is > 86 µM and 9.69 µM.

In the case of `CC(C)(C)c1ccc(OCCCCCCN2CCNCC2)cc1`, the GI50 was 2.38 µM and the TGI came to 6.78 µM.

On to `C=CC(=O)N(C)[C@H]1C[C@H]2OC(C)(C1OC)n1c3ccccc3c3c4c(c5c6ccccc6n2c5c31)C(=O)NC4` (some centres undefined), for which the GI50 is 0.0571 µM and the TGI is 0.235 µM.

For `Cc1ccc(-c2cc(-c3ccc(C)cc3)nc(NCCNc3ccnc4cc(Cl)ccc34)n2)cc1`, the GI50 is 1.44 µM and the TGI is 3.06 µM.

Turning to `CCC1C(c2cc(OC)c(OC)c(OC)c2)c2cc3c(cc2OC1N1CCCC1)OCO3` (centres undefined), the GI50 was 4.23 µM and the TGI stood at 25.2 µM.

On to `CN1CCN(Cc2ccc(NC(=O)c3cncc(C#Cc4cnc(N)c5ccncc45)c3)cc2C(F)(F)F)CC1`, for which the GI50 was 1.26 µM and the TGI is 8.24 µM.

Take `COc1ccc(-c2n[nH]nc2-c2cc(OC)c3c(c2OC)OCO3)cc1`: the GI50 is 0.386 µM and the TGI amounted to 1.49 µM.

As to `CC(CN1CCN(CCOCCO)CC1)CN1c2ccccc2Sc2ccc(Cl)cc21` (centres undefined), the GI50 was 1.69 µM and the TGI stood at 4.14 µM.

With `C[C@]12CCC3[C@@H](CC[C@@H]4c5nonc5CC[C@]34C)C1CCC(=O)N2` (some centres undefined), the GI50 was 60.2 µM and the TGI is above 100 µM.

For `C=CC(=O)N1CCN(c2ccc3cccc(NC(=O)c4cnc(C)cn4)c3n2)CC1`, the GI50 is 1.83 µM and the TGI was determined as 7.45 µM.

On to `CN(C)CCCN1c2ccccc2CCc2ccc(Cl)cc21`, for which the GI50 is 1.42 µM and the TGI came out at 3.23 µM.

On to `O=C1c2c(c3c4ccccc4[nH]c3c3ccc4ccccc4c23)C(=O)N1CCN1CCCCC1`, for which the GI50 was 0.38 µM and the TGI was determined as 2.49 µM.

With `C=CC(=O)Nc1cccc(C)c1Nc1cc(-c2cccnc2Cc2c(C)c(OC)cc(OC)c2C)ncn1`, the GI50 was 5.85 µM and the TGI is 24.7 µM.

Regarding `CCN(C(=O)N1CCN(c2cc3c(cc2F)c(=O)c(C(=O)O)cn3C2CC2)CC1)c1nc(-c2ccc(C)cc2)cs1`, the GI50 is 1.13 µM and the TGI stood at 7.4 µM.

`CCCn1cnc2c(c1=N)C(c1ccc(Cl)cc1)c1sc3c(C)cccc3c1O2` (centres undefined): the GI50 is 0.361 µM and the TGI is 3.9 µM.

`O=C(C1CCCCC1)[C@@H]1[C@]2(C(=O)NC3CCCCC32)[C@@H]2CCCN2[C@@]12C(=O)NC1CCC(Cl)CC12` (some centres undefined): the GI50 is 121 µM and the TGI was 277 µM.

Regarding `N/C(=N\N=C\c1ccc(-c2ccccc2)cc1)N[N+](=O)[O-]`, the GI50 is 0.935 µM and the TGI was above 100 µM.

In the case of `Cc1ccc(C(=O)Nc2cccc(C(F)(F)F)c2)cc1Nc1nc(-c2cccnc2)nc2c1cnn2C`, the GI50 was 3.02 µM and 1.78 µM; the TGI is 8.4 µM and 4.48 µM.

On to `CCN1CCC(CCOC)(CN2c3ccccc3Sc3ccc(Cl)cc32)C1` (centres undefined), for which the GI50 was 1.66 µM and the TGI stood at 3.37 µM.

Consider `C[C@]12CC[C@H]3[C@@H](CCC4=CC(=O)CC[C@@H]43)[C@@H]1CC[C@@H]2OC(=O)CCc1ccccc1`, for which the GI50 was above 61.4 µM and the TGI was above 100 µM.

On to `Cc1ccc(C(=O)Nc2ccc(CN3CCN(C)CC3)c(C(F)(F)F)c2)cc1C#Cc1cnc2cccnn12`, for which the GI50 is 0.461 µM and 1.5 µM; the TGI was 1.72 µM and 4.22 µM.

Consider `Cn1c2c(cc(S(=O)(=O)c3ccccc3)c1=O)CCc1c-2cnn1-c1ccc(Cl)cc1`, for which the GI50 was 2.39 µM and the TGI came out at 5.65 µM.

Consider `COc1ccc(-c2cc(-c3ccccc3)nc(SCCCC(=O)NO)n2)cc1`, for which the GI50 was 1.14 µM and the TGI is 4.52 µM.

As for `O=c1[nH]c2ccccc2nc1-c1c[nH]c2ccccc12`, the GI50 is above 100 µM and the TGI was above 100 µM.

`COc1ccc(C2CC(c3cc(OC)c(OC)c(OC)c3)=NN2C(C)=O)cc1OCC(=O)Nc1nc2ccc(C(F)(F)F)cc2s1` (centres undefined): the GI50 is 6.12 µM and the TGI is 29.1 µM.

Consider `COc1cccc(NC(=O)c2sc3nc4c(cc3c2N)CN(Cc2ccccc2)CC4)c1`, for which the GI50 is 2.6 µM and the TGI came to 61.4 µM.

As to `C=C1CC[C@@H]2[C@](C)(COC(C)=O)[C@@H](O)CC[C@@]2(C)[C@@H]1COc1ccc2ccc(=O)oc2c1`, the GI50 was above 100 µM and the TGI is above 100 µM.

In the case of `CN(C)c1ccc(/C=C\c2cccc[n+]2C)cc1`, the GI50 was 0.988 µM and the TGI turned out to be 5.76 µM.

As to `Cc1cc2c3ccc(C)[n+](C)c3ccc2n1C`, the GI50 is 1.12 µM and the TGI was 8.5 µM.

For the compound `CCN=C1C=CC(=C(c2ccc(N)cc2)c2ccc(N(CC)CC)c(C)c2)C=C1`, the GI50 was 0.193 µM and the TGI turned out to be 0.718 µM.

As for `O=S(=O)(NCCNC/C=C/c1ccc(Br)cc1)c1cccc2cnccc12`, the GI50 was 3.3 µM and 5.06 µM; the TGI is 13.8 µM and 18.5 µM.

Turning to `Cc1cc(N/N=C/c2nc(-c3ccc(Br)cc3)oc2C)c2cc(Cl)ccc2n1`, the GI50 was above 100 µM and the TGI was above 100 µM.

With `C/C(=N\Nc1ccc2ccccc2n1)c1ccccn1`, the GI50 was 0.0962 µM and the TGI was 0.705 µM.

As for `COC(=O)C(Cc1ccccc1)NC(=O)NC(=O)NC(=O)CI` (centres undefined), the GI50 is 4.1 µM and the TGI came to 15.1 µM.

Regarding `CN(C)c1ccc2c(c1)Sc1cc(N(C)C)ccc1N2C(=O)c1ccccc1`, the GI50 is 44.7 µM and the TGI was above 100 µM.

With `CC1=C(CCC(C)N(C)Cc2ccc(OCCCN3CCCC3)cc2)C(C)(C)CCC1` (centres undefined), the GI50 is 2.15 µM and the TGI turned out to be 5.75 µM.

As for `N#C/C(=C\c1c(-c2ccccc2)[nH]c2ccccc12)S(=O)(=O)c1ccccc1`, the GI50 was 1.86 µM and the TGI is above 28.3 µM.

Take `Cc1ccc(NC(=O)/C=C/c2ccccc2)c(C(N)=O)c1`: the GI50 is 3.17 µM and the TGI was determined as 28.1 µM.

Turning to `Nc1ncnc2[nH]ncc12`, the GI50 was 0.219 µM and the TGI is 2.85 µM.

With `O=[N+]([O-])c1cccc(-c2nc3sccn3c2-c2ccnc(NCCCNS(=O)(=O)c3cccc(F)c3)n2)c1`, the GI50 is 0.829 µM and the TGI is 6.1 µM.

Regarding `Clc1cc(Cl)c(OCC#CI)cc1Cl`, the GI50 was 2.36 µM and the TGI amounted to 7.29 µM.

These data come from PubChem BioAssay (NCI).
